These results are taken from ChEMBL document CHEMBL3352242, “Structure-based design of substituted piperidines as a new class of highly efficacious oral direct Renin inhibitors” (ACS Med Chem Lett, 2014).

The bioavailability is dose-corrected exposure relative to a reference, in per cent. High values mean good availability, low ones poor availability. The half-life is the time in which the quantity being followed falls by half. A high value points to slow loss. The term clearance denotes the volume of plasma or blood freed of the substance per unit of time. Read a high clearance as efficient removal. Broadly, the logD is lipophilicity at a set pH, counting ionised and neutral species. Low values mean a more hydrophilic compound, high ones a more lipophilic compound. As a reminder, the IC50 is the concentration needed to halve the response being measured.

For series [1], the system named is Rattus norvegicus. In words: Dose normalized Cmax inSprague-Dawley rat at 6 mg/kg, po. The class given is ADME, organism-based, Sprague-Dawley. The arrangement: dose 6 mg/kg, route oral. As to conditions: in vivo.
Series [2] in a line: Oral bioavailability in Sprague-Dawley rat at 6 mg/kg. It counts as ADME, organism-based. As to conditions: in vivo.
Series [3] relates to Rattus norvegicus. In words: Dose normalized AUC (infinity) in Sprague-Dawley rat at 6 mg/kg, po. It counts as ADME, organism-based. As to conditions: in vivo. Set-up: dose 6 mg/kg, route oral.
Series [4] can be described thus: Half life in Sprague-Dawley rat at 2 mg/kg, iv. The class given is ADME, organism-based. The arrangement: dose 2 mg/kg, route intravenous. As to conditions: in vivo.
Series [5] in a line: Clearance in Sprague-Dawley rat at 2 mg/kg, iv. The arrangement: dose 2 mg/kg, route intravenous. It counts as ADME, organism-based. As to conditions: in vivo.
Series [6] is described as follows: Volume of distribution at steady state in Sprague-Dawley rat at 2 mg/kg, iv. It counts as ADME, organism-based. Set-up: dose 2 mg/kg, route intravenous. As to conditions: in vivo, read-out: Vdss.
Series [7] in a line: Lipophilicity, logD of the compound at pH 6.8. The class given is physicochemical. As to conditions: buffer.
A short description of series [8]: Clearance in rat liver microsomes. It counts as ADME. As to conditions: read-out: CLH. For orientation: Liver microsomes are vesicles of endoplasmic reticulum, rich in cytochrome P450 enzymes.
The target of series [9] is Voltage-gated inwardly rectifying potassium channel KCNH2 (Homo sapiens, UniProt Q12809). Description: Displacement of [3H]dofetilide from human ERG expressed in HEK293 cell membranes incubated for 90 mins by beta-counting method. Background: Loss of bound radioactivity is the signal in a displacement assay; it reports binding, not function.
A short description of series [10]: Clearance in human liver microsomes. The class given is ADME. As to conditions: read-out: CLH.
The target in series [11] is T1, Renin (Homo sapiens, UniProt P00797).
T1 sequence (P00797 whole entry): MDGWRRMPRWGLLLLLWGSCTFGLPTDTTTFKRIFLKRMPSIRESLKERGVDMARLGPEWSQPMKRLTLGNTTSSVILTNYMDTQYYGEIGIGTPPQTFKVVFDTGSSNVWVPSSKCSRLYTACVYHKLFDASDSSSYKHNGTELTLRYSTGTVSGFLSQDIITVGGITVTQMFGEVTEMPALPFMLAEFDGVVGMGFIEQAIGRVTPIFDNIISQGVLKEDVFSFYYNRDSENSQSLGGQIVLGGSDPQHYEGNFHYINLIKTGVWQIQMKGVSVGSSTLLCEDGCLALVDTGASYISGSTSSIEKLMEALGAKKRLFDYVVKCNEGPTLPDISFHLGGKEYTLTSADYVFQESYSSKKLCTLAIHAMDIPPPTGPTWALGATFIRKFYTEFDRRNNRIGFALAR
In words: Inhibition of human recombinant renin using fluorescence-quenched RE(EDANS)IHPFHLVIHTK(Dabcyl)R substrate by fluorimetric assay.

Series [12] deals with T1, Renin. In words: Inhibition of human recombinant renin in presence of human plasma using Ac- IHPFHL-VIHNK-(DY-505-X5)-COOH substrate by fluorimetric assay.

Chain of Voltage-gated inwardly rectifying potassium channel KCNH2 (Q12809 whole entry): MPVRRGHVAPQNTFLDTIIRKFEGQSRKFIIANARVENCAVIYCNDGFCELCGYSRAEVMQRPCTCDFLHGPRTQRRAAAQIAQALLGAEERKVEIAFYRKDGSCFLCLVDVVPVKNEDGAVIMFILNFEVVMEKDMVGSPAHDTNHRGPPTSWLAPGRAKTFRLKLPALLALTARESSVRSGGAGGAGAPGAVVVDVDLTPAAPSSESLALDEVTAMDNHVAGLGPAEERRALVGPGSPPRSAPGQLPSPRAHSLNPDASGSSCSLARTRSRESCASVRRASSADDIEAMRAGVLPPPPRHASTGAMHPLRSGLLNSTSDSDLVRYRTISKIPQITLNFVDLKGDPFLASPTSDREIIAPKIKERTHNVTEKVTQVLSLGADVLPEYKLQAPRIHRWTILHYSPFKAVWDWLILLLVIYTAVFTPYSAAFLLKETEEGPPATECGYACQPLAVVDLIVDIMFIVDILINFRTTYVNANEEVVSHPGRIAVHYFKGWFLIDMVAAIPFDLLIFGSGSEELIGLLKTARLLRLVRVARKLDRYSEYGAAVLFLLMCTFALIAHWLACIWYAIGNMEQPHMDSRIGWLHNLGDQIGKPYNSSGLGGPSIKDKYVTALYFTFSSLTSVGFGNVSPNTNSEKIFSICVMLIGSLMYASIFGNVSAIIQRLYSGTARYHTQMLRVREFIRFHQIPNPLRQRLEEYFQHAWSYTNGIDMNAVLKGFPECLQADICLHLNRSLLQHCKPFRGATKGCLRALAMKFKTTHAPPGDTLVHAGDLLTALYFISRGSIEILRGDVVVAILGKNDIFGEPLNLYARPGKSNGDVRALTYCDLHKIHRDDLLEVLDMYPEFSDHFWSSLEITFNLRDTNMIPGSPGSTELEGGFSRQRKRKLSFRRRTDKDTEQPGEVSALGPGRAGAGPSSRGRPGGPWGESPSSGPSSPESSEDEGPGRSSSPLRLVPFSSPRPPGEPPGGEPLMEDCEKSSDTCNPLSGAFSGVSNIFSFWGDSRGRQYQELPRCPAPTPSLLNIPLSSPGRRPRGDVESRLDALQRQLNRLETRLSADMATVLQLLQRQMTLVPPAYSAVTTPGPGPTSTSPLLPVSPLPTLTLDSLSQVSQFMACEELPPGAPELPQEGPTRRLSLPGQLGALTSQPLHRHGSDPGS

Turning to `CCOC[C@@H](CC(C)C)NC(=O)[C@@H]1CNC[C@H](C(=O)N(c2cc(OCC)c(CC)cn2)C2CC2)[C@@H]1O.O=C(O)/C=C/C(=O)O`, the Cmax/dose in the series on Rattus norvegicus [1] was 252 nM/mg/kg. For the same compound, in series [2], the bioavailability came out at 60%. In addition, the AUC/dose in the series on Rattus norvegicus [3] is 1630 nM·h/mg/kg. In series [4], this compound gave a half-life of 5.9 h. In series [5], the clearance was 12.3 mL/min/kg. Moreover, the Vd in series [6] turned out to be 2.6 L/kg.

Compound `CCOC[C@@H](CC(C)C)NC(=O)[C@@H]1CNC[C@H](C(=O)N(c2cc(OC)c(C(C)C)cn2)C2CC2)C1` showed a logD in [7] of 2.2.

In the series with Rattus norvegicus [1], `CCOC[C@@H](CC(C)C)NC(=O)[C@@H]1CNC[C@H](C(=O)N(c2cc(OCC)c(CC)cn2)C2CC2)C1.O=C(O)C(O)C(O)C(=O)O` had a Cmax/dose of 155 nM/mg/kg. Besides, the bioavailability in [2] was 44%. Moreover, the AUC/dose with Rattus norvegicus [3] was found to be 690 nM·h/mg/kg. The half-life in [4] was 7.4 h. In series [5], this compound gave a clearance of 23.3 mL/min/kg. For the same compound, the Vd in [6] came to 4.6 L/kg.

For the compound `CCOC[C@@H](CC(C)C)NC(=O)[C@@H]1CNC[C@H](C(=O)N(c2cc(OCC)c(CC)cn2)C2CC2)C1` [listing 1 of 2 here], the microsomal CLint in series [8] worked out at 62 µL/min/mg; in [10] it was 46 µL/min/mg. The IC50 in series [9] was greater than 30000 nM; on Renin [11], 0.2 nM.

Regarding `COCCCn1cc(CN(C(=O)[C@H]2CNC[C@@H](C(=O)N[C@H](CCO)c3ccccc3)C2)C2CC2)c2ccccc21`, the values for the IC50 on Renin [12] and on Renin [11] were 1 nM and 0.4 nM, respectively. In addition, the microsomal CLint in series [8] is 109 µL/min/mg; in [10] it was 173 µL/min/mg. The bioavailability in series [2] was less than 0.1%.

Consider `CCOC[C@@H](CC(C)C)NC(=O)[C@@H]1CNC[C@H](C(=O)N(c2cc(OC)c(C(C)C)cn2)C2CC2)[C@@H]1O` [listing 1 of 2 here], for which the IC50 on Renin [12] was found to be 2 nM. In addition, the microsomal CLint in series [8] stood at 142 µL/min/mg; in [10], 22 µL/min/mg.

Turning to `CCOC[C@@H](CC(C)C)NC(=O)[C@@H]1CNC[C@H](C(=O)N(c2cc(OCCCOC)c(C(C)C)cn2)C2CC2)C1.Cl`, the IC50 on Renin [12] was found to be 1 nM; at Renin [11] it was 0.4 nM. The compound also showed a Cmax/dose in the series with Rattus norvegicus [1] of 18 nM/mg/kg. For the same compound, the microsomal CLint in [8] came out at 96 µL/min/mg; in series [10], 53 µL/min/mg. In series [2], this compound had a bioavailability of 19%. In the series with Rattus norvegicus [3], this compound came in with an AUC/dose of 93 nM·h/mg/kg. Also, the half-life in series [4] was 4.3 h. Further, in series [5], the clearance was 80 mL/min/kg. Also, the Vd in [6] is 11 L/kg.

Consider `COCCCn1cc(CN(C(=O)[C@H]2CNC[C@@H](C(=O)NCC(C)C)C2)C2CC2)c2ccccc21` (racemic), for which the IC50 on Renin [12] was determined as 115 nM; at Renin [11], 15 nM.

Regarding `CCOC[C@@H](CC(C)C)NC(=O)[C@@H]1CNC[C@H](C(=O)N(c2cc(OCCCOC)c(C(C)C)cc2F)C2CC2)C1`, the IC50 at Renin [12] turned out to be 2 nM; at Renin [11] it was 0.3 nM. Also, the values for the microsomal CLint in series [8] and in series [10] were 214 µL/min/mg and 115 µL/min/mg, respectively.

With `Cc1ccc(S(=O)(=O)N[C@@H]2CNC[C@H](C(=O)NC(c3ccccc3)c3ccccc3)C2)cc1` (racemic), the IC50 on Renin [12] was determined as 15200 nM; on Renin [11], 1200 nM.

With `COCCCn1cc(CN(C(=O)[C@H]2CNC[C@@H](C(=O)N[C@@H](CO)CC(C)C)C2)C2CC2)c2ccccc21`, the IC50 was 8 nM at Renin [12] and 3 nM on Renin [11]. The microsomal CLint amounted to 111 µL/min/mg in series [8] and 157 µL/min/mg in series [10]. This compound showed a bioavailability in series [2] of 0.4%.

For the compound `CCOC[C@@H](CC(C)C)NC(=O)[C@@H]1CNC[C@H](C(=O)N(c2cc(OCC)c(CC)cn2)C2CC2)[C@@H]1O` [listing 1 of 2 here], the logD in [7] came out at 0.93.

Take `COCCCn1cc(CN(C(=O)[C@H]2CNC[C@@H](C(=O)Nc3c(C)cccc3OC)C2)C2CC2)c2ccccc21`: the IC50 came to 2 nM at Renin [12] and 0.4 nM on Renin [11]. Further, the microsomal CLint in series [8] was 533 µL/min/mg; in [10], 679 µL/min/mg.

Compound `CCOC[C@@H](CC(C)C)NC(=O)[C@@H]1CNC[C@H](C(=O)N(c2cc(OCC)c(CC)cn2)C2CC2)C1` [listing 2 of 2 here] showed a logD in series [7] of 2.1.

Turning to `COCCCn1cc(CN(C(=O)[C@H]2CNC[C@@H](NC(=O)CC(C)C)C2)C2CC2)c2ccccc21` (racemic), at Renin [11], the IC50 came to 300 nM.

With `CCOC[C@@H](CC(C)C)NC(=O)[C@@H]1CNC[C@H](C(=O)N(c2cc(OC)c(C(C)C)cn2)C2CC2)C1.O=C(O)C(O)C(O)C(=O)O`, the Cmax/dose with Rattus norvegicus [1] was 68 nM/mg/kg. Besides, the bioavailability in [2] came out at 39%. In the series on Rattus norvegicus [3], this compound returned an AUC/dose of 324 nM·h/mg/kg. The half-life in series [4] is 7 h. In series [5], this compound had a clearance of 40 mL/min/kg. The Vd in series [6] was 4.3 L/kg.

As to `CC(C)(C)OC(=O)N[C@@H]1CNC[C@H](C(=O)N(Cc2cccc(Cl)c2Cl)C2CC2)C1` (racemic), the IC50 at Renin [11] is 200 nM.

Regarding `CCOC[C@@H](CC(C)C)NC(=O)[C@@H]1CNC[C@H](C(=O)N(c2cc3c(cc2F)OC(C)(C)C(=O)N3CCCOC)C2CC2)C1.Cl`, the Cmax/dose in the series on Rattus norvegicus [1] is reported as 12 nM/mg/kg. The microsomal CLint in [8] was 198 µL/min/mg; in [10], 61 µL/min/mg. The compound also registered a bioavailability in series [2] of 20%. In the series on Rattus norvegicus [3], this compound returned an AUC/dose of 49 nM·h/mg/kg. The half-life in series [4] is 1.9 h. For the same compound, the clearance in series [5] is 122 mL/min/kg. Also, in [6], the Vd came out at 12 L/kg.

As to `CCOC[C@@H](CC(C)C)NC(=O)[C@@H]1CNC[C@H](C(=O)N(c2ccc(C(C)C)cn2)C2CC2)C1.O=C(O)/C=C/C(=O)O`, the Cmax/dose in the series on Rattus norvegicus [1] came to 63 nM/mg/kg. In series [2], this compound showed a bioavailability of 45%. The same compound showed an AUC/dose with Rattus norvegicus [3] of 296 nM·h/mg/kg. In series [4], this compound had a half-life of 6.5 h. The compound further had a clearance in [5] of 60 mL/min/kg. The Vd in series [6] came to 7.2 L/kg.

In series [7], `CCOC[C@@H](CC(C)C)NC(=O)[C@@H]1CNC[C@H](C(=O)N(c2ccc(C(C)C)cn2)C2CC2)C1` [listing 1 of 2 here] gave a logD of 4.9.

For `Cc1ccc(S(=O)(=O)N[C@@H]2CNC[C@H](C(=O)N(Cc3cccc(Cl)c3Cl)C3CC3)C2)cc1` (racemic), the IC50 on Renin [11] stood at 2600 nM.

In the series on Rattus norvegicus [1], `CCOC[C@@H](CC(C)C)NC(=O)[C@@H]1CNC[C@H](C(=O)N(c2cc(OC)c(C(C)C)cn2)C2CC2)[C@@H]1O` [listing 2 of 2 here] came in with a Cmax/dose of 74 nM/mg/kg. In series [2], this compound registered a bioavailability of 61%. The same compound gave an AUC/dose in the series with Rattus norvegicus [3] of 511 nM·h/mg/kg. In series [4], this compound showed a half-life of 7.7 h. Also, in [7], the logD turned out to be 0.93. The compound further showed a clearance in series [5] of 40 mL/min/kg. The Vd in [6] is 6.1 L/kg.

Regarding `CCOC[C@@H](CC(C)C)NC(=O)[C@@H]1CNC[C@H](C(=O)N(c2ccc(C(C)C)cc2)C2CC2)C1`, the values for the IC50 at Renin [12] and on Renin [11] were 5340 nM and 4 nM, respectively.

For `COCCCn1cc(CN(C(=O)[C@H]2CNC[C@@H](C(=O)NCCC(C)C)C2)C2CC2)c2ccccc21`, the IC50 came to 40 nM at Renin [12] and 3 nM at Renin [11]. The microsomal CLint amounted to 141 µL/min/mg in [8] and 194 µL/min/mg in series [10]. Besides, the bioavailability in series [2] is 29%.

As to `CCOC[C@@H](CC(C)C)NC(=O)[C@@H]1CNC[C@H](C(=O)N(c2ccc(C(C)C)cn2)C2CC2)C1` [listing 2 of 2 here], the IC50 at Renin [12] was determined as 1.1 nM; in series [9], 7000 nM. Also, the microsomal CLint in series [8] was 13 µL/min/mg; in series [10], less than 3.4 µL/min/mg.

Regarding `CCOC[C@@H](CC(C)C)NC(=O)[C@@H]1CNC[C@H](C(=O)N(c2cc(OCC)c(CC)cn2)C2CC2)[C@@H]1O` [listing 2 of 2 here], the IC50 was 2.5 nM at Renin [12] and 0.6 nM on Renin [11]. Besides, the values for the microsomal CLint in [8] and in series [10] were 54 µL/min/mg and 22 µL/min/mg, respectively.
